Test results as given in ChEMBL document CHEMBL1201862, “PubChem BioAssay data set” (2004).
Activity calls are given as the source filed them. Unless noted, the rule behind the calls is not given here.

Tests used:
Assay type in all cases: functional
Mu-type opioid receptor [1] = biological target: T1, Mu-type opioid receptor (Homo sapiens, UniProt P35372); experiment: SAR Analysis of Antagonists of the MOR Receptor using an Image-Based Assay - Set 2. [Related pubchem assays (depositor defined):AID1777, AID1785, AID1786, AID1966, AID2133, AID2136, AID2284, AID2285, AID2420]
[2] = biological target: T2, Kappa-type opioid receptor (Homo sapiens, UniProt P41145); experiment: SAR analysis of Antagonists of the Kappa Opioid Receptor (KOR) using an Image-Based Assay - Set 2. [Related pubchem assays (depositor defined):AID1777, AID1785, AID1786, AID1966, AID2133, AID2136, AID2284, AID2285, AID2348]
Mu-type opioid receptor [3] = biological target: T1, Mu-type opioid receptor; experiment: SAR Analysis of Agonists of the MOR Receptor using an Image-Based Assay - Set 2. [Related pubchem assays (depositor defined):AID1777, AID1785, AID1786, AID1966, AID2133, AID2136, AID2284, AID2285, AID2352]
[4] = biological target: T2, Kappa-type opioid receptor; experiment: SAR analysis of small molecule agonists of the kappa opioid receptor via a luminescent beta-arrestin assay - Set 2. [Related pubchem assays (depositor defined):AID1777, AID1785, AID1786, AID1966, AID2133, AID2136, AID2284, AID449737]
[5] = biological target: T3, Delta-type opioid receptor (Homo sapiens, UniProt P41143); experiment: SAR Analysis of Agonists of the DOR Receptor using an Image-Based Assay - Set 2. [Related pubchem assays (depositor defined):AID1777, AID1785, AID1786, AID1966, AID2133, AID2136, AID2284, AID2285, AID2370]
[6] = biological target: T3, Delta-type opioid receptor; experiment: SAR Analysis of Antagonists of the DOR Receptor using an Image-Based Assay - Set 2. [Related pubchem assays (depositor defined):AID1777, AID1785, AID1786, AID1966, AID2133, AID2136, AID2284, AID2285, AID2357]
[7] = biological target: T2, Kappa-type opioid receptor; experiment: SAR analysis of Agonists of the Kappa Opioid Receptor (KOR) using an Image-Based Assay - Set 2. [Related pubchem assays (depositor defined):AID1777, AID1786, AID1966, AID2133, AID2136, AID2284, AID2285, AID2359]

T2 sequence (P41145 whole entry): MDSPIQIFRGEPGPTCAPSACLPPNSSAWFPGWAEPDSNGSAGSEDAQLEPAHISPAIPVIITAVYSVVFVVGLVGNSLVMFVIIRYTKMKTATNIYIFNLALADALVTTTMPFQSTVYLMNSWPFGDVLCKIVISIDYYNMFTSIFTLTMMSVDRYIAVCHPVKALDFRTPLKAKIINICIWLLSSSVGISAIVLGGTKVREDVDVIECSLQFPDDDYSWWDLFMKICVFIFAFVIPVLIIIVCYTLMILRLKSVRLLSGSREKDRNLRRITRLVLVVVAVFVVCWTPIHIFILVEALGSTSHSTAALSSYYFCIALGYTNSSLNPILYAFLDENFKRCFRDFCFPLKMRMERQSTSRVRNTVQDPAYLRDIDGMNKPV
T1 sequence (P35372 whole entry): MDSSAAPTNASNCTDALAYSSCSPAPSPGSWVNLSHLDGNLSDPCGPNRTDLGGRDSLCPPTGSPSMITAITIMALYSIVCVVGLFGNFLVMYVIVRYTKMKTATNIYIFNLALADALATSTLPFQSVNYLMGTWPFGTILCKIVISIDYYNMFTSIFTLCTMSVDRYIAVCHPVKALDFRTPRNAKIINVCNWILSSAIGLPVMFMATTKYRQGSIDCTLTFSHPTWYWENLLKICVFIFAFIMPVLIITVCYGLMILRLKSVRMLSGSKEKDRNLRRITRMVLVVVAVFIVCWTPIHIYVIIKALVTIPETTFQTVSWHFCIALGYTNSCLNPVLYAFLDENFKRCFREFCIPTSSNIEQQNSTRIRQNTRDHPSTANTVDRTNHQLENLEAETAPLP
T3 sequence (P41143 whole entry): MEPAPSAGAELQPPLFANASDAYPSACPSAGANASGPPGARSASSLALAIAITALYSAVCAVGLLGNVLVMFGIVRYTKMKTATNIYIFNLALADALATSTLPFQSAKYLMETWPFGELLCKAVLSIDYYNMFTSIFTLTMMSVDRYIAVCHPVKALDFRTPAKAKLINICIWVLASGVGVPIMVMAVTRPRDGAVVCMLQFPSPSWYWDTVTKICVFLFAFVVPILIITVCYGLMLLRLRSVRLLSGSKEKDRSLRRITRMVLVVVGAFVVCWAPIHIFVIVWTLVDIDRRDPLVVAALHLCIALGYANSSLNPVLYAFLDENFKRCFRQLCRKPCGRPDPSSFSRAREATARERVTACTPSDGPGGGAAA

IC50 (Mu-type opioid receptor [1]): > 32 µM (inactive) | IC50 [2]: > 32 µM (inactive) | EC50 (Mu-type opioid receptor [3]): > 32 µM (inactive) | EC50 [4]: 9.61 µM (active) | EC50 [5]: > 32 µM (inactive) | IC50 [6]: > 32 µM (inactive) | EC50 [7]: 5.98 µM (active)
Structure (SMILES): COc1ccc(CSc2nnc(-c3ccccn3)n2Cc2cccs2)cc1
